Data from PubChem BioAssay AID264 (DTP/NCI, 2004).
Values joined by “and” are separate entries in the source; they are usually repeats but may differ in a detail not shown here. Equal entries are not always repeated. Records with an inconclusive call do not appear.

System: nude mice, LX-1 lung xenograft intrarenal, tumor weight T/C
Experiment: NCI In Vivo Anticancer Drug Screen. Data for tumor model Human Lung LX-1 Xenograft (intrarenal inoculation) in NU/NU Swiss (nude) mice
Conditions: endpoint: mean tumor weight change, higher = larger tumour
Procedure, shortened: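 In vivo, transplantable tumor; compound vs vehicle arms; tumor size measured; value = T/C.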

[1] = dose: 150.0 mg/kg/injection, schedule: Q04DX003 (sc), vehicle: saline
[2] = dose: 300.0 mg/kg/injection, schedule: Q04DX003 (sc), vehicle: saline

O=CC(=O)c1ccc(O)cc1
T/C [1]: 51 % of control | T/C [2]: 49 % of control | T/C (dose: 600.0 mg/kg/injection, schedule: Q04DX003 (sc), vehicle: saline): 58 % of control

Cc1ccc(S(=O)(=O)N/N=C/C(Br)=C(/Br)C(=O)O)cc1
T/C (dose: 150.0 mg/kg/injection, schedule: Q04DX003 (sc), vehicle: Klucel (hydroxypropylcellulose) (HPC)): 66 % of control | T/C (dose: 300.0 mg/kg/injection, schedule: Q04DX003 (sc), vehicle: Klucel (hydroxypropylcellulose) (HPC)): 58 % of control | T/C (dose: 600.0 mg/kg/injection, schedule: Q04DX003 (sc), vehicle: Klucel (hydroxypropylcellulose) (HPC)): 43 % of control

CC[C@](O)(C(=O)O)c1cc2n(c(=O)c1CO)Cc1cc3ccccc3nc1-2
T/C (dose: 16.0 mg/kg/injection, schedule: Q04DX003 (sc), vehicle: saline): -5 % of control | T/C (dose: 31.25 mg/kg/injection, schedule: Q04DX003 (sc), vehicle: saline): 25 % of control | T/C (dose: 62.5 mg/kg/injection, schedule: Q04DX003 (sc), vehicle: saline): 1 % of control | T/C (dose: 125.0 mg/kg/injection, schedule: Q04DX003 (sc), vehicle: saline): -48 % of control

Cc1ccc2c(c1)C(=O)N(CC[P+](c1ccccc1)(c1ccccc1)c1ccccc1)C2=O
T/C (dose: 25.0 mg/kg/injection, schedule: Q01DX010 (sc), vehicle: Klucel (hydroxypropylcellulose) (HPC)): 51 % of control | T/C (dose: 50.0 mg/kg/injection, schedule: Q01DX010 (sc), vehicle: Klucel (hydroxypropylcellulose) (HPC)): 37 % of control

CN(CCN(C)C(=O)CCOS(C)(=O)=O)C(=O)CCOS(C)(=O)=O
T/C [1]: 58 % of control | T/C [2]: 27 % of control

NC(=O)c1[nH]nc(C2OC(CO)C(O)C2O)c1O (centres undefined)
T/C (dose: 0.62 mg/kg/injection, schedule: Q04DX003 (sc), vehicle: saline): 77 % of control | T/C (dose: 1.25 mg/kg/injection, schedule: Q04DX003 (sc), vehicle: saline): 65 % of control | T/C (dose: 2.5 mg/kg/injection, schedule: Q04DX003 (sc), vehicle: saline): 109 % of control | T/C (dose: 5.0 mg/kg/injection, schedule: Q04DX003 (sc), vehicle: saline): 78 % of control

CSC(SC)=C1C(=O)NC(=O)NC1=O
T/C (dose: 150.0 mg/kg/injection, schedule: Q04DX003 (sc), vehicle: suspension in saline): 68 % of control | T/C (dose: 300.0 mg/kg/injection, schedule: Q04DX003 (sc), vehicle: suspension in saline): 102 % of control | T/C (dose: 600.0 mg/kg/injection, schedule: Q04DX003 (sc), vehicle: suspension in saline): 42 % of control

CC/C(=C(/CC)c1ccc(O)cc1)c1ccc(O)cc1
T/C (dose: 50.0 mg/kg/injection, schedule: Q01DX010 (sc), vehicle: saline with Tween-80): 106 % of control | T/C (dose: 100.0 mg/kg/injection, schedule: Q01DX010 (sc), vehicle: saline with Tween-80): 105 % of control

O=C/C(Cl)=C(/Cl)C(=O)O
T/C (dose: 5.0 mg/kg/injection, schedule: Q01DX010 (sc), vehicle: saline with Tween-80): 124 % of control | T/C (dose: 10.0 mg/kg/injection, schedule: Q01DX010 (sc), vehicle: saline with Tween-80): 210 % of control | T/C (dose: 20.0 mg/kg/injection, schedule: Q01DX010 (sc), vehicle: saline with Tween-80): 72 % of control and 213 % of control | T/C (dose: 40.0 mg/kg/injection, schedule: Q01DX010 (sc), vehicle: saline with Tween-80): 48 % of control and 65 % of control

Cn1cnc([N+](=O)[O-])c1SCC(=O)O
T/C (dose: 100.0 mg/kg/injection, schedule: Q01DX010 (sc), vehicle: saline): 71 % of control | T/C (dose: 200.0 mg/kg/injection, schedule: Q01DX010 (sc), vehicle: saline): 83 % of control | T/C (dose: 400.0 mg/kg/injection, schedule: Q01DX010 (sc), vehicle: saline): 103 % of control | T/C (dose: 800.0 mg/kg/injection, schedule: Q01DX010 (sc), vehicle: saline): 66 % of control

S=C=NCCc1ccccc1
T/C (dose: 200.0 mg/kg/injection, schedule: Q01DX010 (sc), vehicle: saline with Tween-80): 68 % of control

COc1cccc2c1C(=O)c1c(O)c3c(c(O)c1C2=O)C[C@@](O)(C(C)=O)C[C@@H]3OC1CC(N)C(O)C(C)O1 (some centres undefined)
T/C (dose: 0.5 mg/kg/injection, schedule: Q01DX010 (sc), vehicle: saline): 45 % of control | T/C (dose: 1.0 mg/kg/injection, schedule: Q01DX010 (sc), vehicle: saline): 12 % of control | T/C (dose: 2.0 mg/kg/injection, schedule: Q01DX010 (sc), vehicle: saline): 19 % of control | T/C (dose: 4.0 mg/kg/injection, schedule: Q01DX010 (sc), vehicle: saline): 21 % of control

O=C(O)C(CSC(c1ccccc1)(c1ccccc1)c1ccccc1)N=Cc1cccs1 (centres undefined)
T/C (dose: 100.0 mg/kg/injection, schedule: Q04DX003 (sc), vehicle: suspension in saline): 86 % of control | T/C (dose: 200.0 mg/kg/injection, schedule: Q04DX003 (sc), vehicle: suspension in saline): 108 % of control | T/C (dose: 400.0 mg/kg/injection, schedule: Q04DX003 (sc), vehicle: suspension in saline): 55 % of control
